Results: patent US20020177621A1, “Antifungal fragrance composition” (priority 2000, published 2002)
Values joined by “and” are separate entries in the source; they are usually repeats but may differ in a detail not shown here. Equal values may be shown once. “Also recorded” adds a separate entry of the source.

Legend:
Format in all cases: cell-based
[1] = system: Aspergillus niger IFO 9455 (An-1); assay: Fragrant vapor antifungal activity (impregnated paper disc on cover of inverted agar plate); conditions: 72 hours at 27° C.; for IZ: Diameter of growth inhibition zone: 20 μl fragrance (or 40 μl of 50% ethanol solution) on disc, >85 = growth inhibited over entire plate; for SI: Diameter of spore formation inhibition zone / Growth: Growth status outside the inhibition zone: 20 μl fragrance on disc; for Growth: Growth status outside the inhibition zone: compared with control
Experimental: (§1) Physiological saline containing 0.05% Tween-80 was added to a slant on which the test organism grew well, and a spore suspension was produced at 1×10^6 CFU (Colony Forming Units)/ml in accordance with ordinary methods. Potato dextrose agar (PDA: Nissui Pharmaceutical) was used for the medium. To begin with, 10 ml of sterile PDA was pipetted into a Petri dish and after it solidified, another 6 ml of PDA containing 1% of the above described spore suspension was overlaid and solidified to prepare the test agar plate. For the fragrance sample, if the sample is in the form of liquid at ordinary temperatures, 20 μl of liquid was directly impregnated into a paper disc (Advantech, diameter: 8 mm, thick material), while a 50% by weight ethanol solution was prepared for crystals or powder, and 40 μl of that solution was then impregnated into the paper disc.
(§2) The test agar plate was placed inversely, and the paper disc impregnated with the fragrance sample was placed in the center of the cover of the agar plate, followed by incubating for 72 hours at 27° C. Evaluation was made based on the diameter (mm) of the mold growth inhibition zone. When mold growth was inhibited over the entire surface of the agar plate, the diameter of the growth inhibition zone was reported as >85 mm. At locations where mold grew outside the inhibition zone, the diameter of the spore formation inhibition zone and the degree of growth were recorded by comparing with a control. The molds used in the test are shown in Table 1, wherein these molds consist of mold species that are isolated at high frequencies from rooms and bath rooms.
(§3) The amount of blended fragrance added to the paper discs was 20 μl each, and only the diameter of the inhibition zone (mm) is indicated for the results.

[2] = system: Aureobasidium pullulans IFO 6353 (Ap-1); assay: as above; conditions: 72 hours at 27° C.; for IZ: Diameter of growth inhibition zone: 20 μl fragrance (or 40 μl of 50% ethanol solution) on disc, >85 = growth inhibited over entire plate; for SI: Diameter of spore formation inhibition zone / Growth: Growth status outside the inhibition zone: 20 μl fragrance on disc; for Growth: Growth status outside the inhibition zone: compared with control
Experimental: as §1, §2, §3

[3] = system: Cladosporium cladosporioides IFO 6348 (Cc-1); assay: as above; conditions: 72 hours at 27° C.; for IZ: Diameter of growth inhibition zone: 20 μl fragrance (or 40 μl of 50% ethanol solution) on disc, >85 = growth inhibited over entire plate; for Growth: Growth status outside the inhibition zone: compared with control
Experimental: as §1, §2, §3

An-1 (Aspergillus niger) = assay: Confirmation of synergistic action of two fragrances (vapor, paper disc); conditions: for IZ (diameter of growth inhibition zone) / Growth (growth status outside the inhibition zone) / SI (diameter of spore formation inhibition zone): 72 hours at 27° C.; for IZ (diameter of growth inhibition zone): sample amount on disc: citral 2 μl, benzaldehyde 10 μl, dimethyl tetrahydrobenzaldehyde 20 μl, geraniol 10 μl, octyl aldehyde 20 μl, 9-decen-1-ol 0.5 μl, trans-2-undecenal 3 μl, phenylacetaldehyde 5 μl, A + B = both amounts on one disc; for Growth (growth status outside the inhibition zone): sample amounts as in Table 3 (citral 2 μl, benzaldehyde 10 μl, dimethyl tetrahydrobenzaldehyde 20 μl, geraniol 10 μl, octyl aldehyde 20 μl, 9-decen-1-ol 0.5 μl, trans-2-undecenal 3 μl, phenylacetaldehyde 5 μl; A + B = both); for SI (diameter of spore formation inhibition zone): sample amounts as in Table 3 (citral 2 μl, benzaldehyde 10 μl, dimethyl tetrahydrobenzaldehyde 20 μl, geraniol 10 μl, octyl aldehyde 20 μl, trans-2-undecenal 3 μl, phenylacetaldehyde 5 μl; A + B = both); for Synergistic effect: second fragrance that shows synergistic action with the fragrance component: combined IZ 20 mm or more larger than sum of single IZ
Experimental: An agar plate prepared according to the method of Example 1 was used while using An-1 (Aspergillus niger) for the test fungi. […] 10 μl of the ethanol containing the Table 3 prescribed amount of the fragrance was impregnated into a paper disc. The test agar plate was placed inversely, and the paper disc impregnated with each fragrance alone and a paper disc simultaneously impregnated with two types of fragrances were placed in the center of the cover, followed by incubating for 72 hours at 27° C. and measuring the diameters of the resulting growth inhibition zones.
The results obtained as in Example 2 with other combinations are shown in Tables 4 through 7 as combination examples of respective synergistic, additive and antagonistic actions for each fragrant chemical product (a). […] It should be noted that in order to make the table smaller, combinations that have already been listed once are not listed in other columns of the tables.

| SMILES | IZ: Diameter of growth inhibition zone [1] [mm] | SI: Diameter of spore formation inhibition zone [1] [mm] | IZ: Diameter of growth inhibition zone [2] [mm] | SI: Diameter of spore formation inhibition zone [2] [mm] | IZ: Diameter of growth inhibition zone [3] [mm] | Growth: Growth status outside the inhibition zone [1] | Growth: Growth status outside the inhibition zone [2] | Growth: Growth status outside the inhibition zone ([3]; 20 μl fragrance on disc) | IZ (diameter of growth inhibition zone) (An-1 (Aspergillus niger)) [mm] | Growth (growth status outside the inhibition zone) (An-1 (Aspergillus niger)) | SI (diameter of spore formation inhibition zone) (An-1 (Aspergillus niger)) [mm] | Synergistic effect: second fragrance that shows synergistic action with the fragrance component (An-1 (Aspergillus niger); value = combination partner) | Antagonistic effect: second fragrance that shows antagonistic action with the fragrance component (An-1 (Aspergillus niger); value = combination partner, combined IZ 20 mm or more smaller than sum of single IZ) | Additive effect: second fragrance that shows additive action with the fragrance component (An-1 (Aspergillus niger); value = combination partner, combined IZ intermediate) | SI: Diameter of spore formation inhibition zone ([3]; 20 μl fragrance on disc) [mm] |
| --- | --- | --- | --- | --- | --- | --- | --- | --- | --- | --- | --- | --- | --- | --- | --- |
| COc1ccc(C=O)cc1 [Anisaldehyde] | 45 | 60 | 35 | 40 | >85 |  |  |  |  |  |  |  |  |  |  |
| CCCCCCCCC=O [Example 1-nonanal, 1-nonanal] | 20 |  | >85 |  | >85 | weak | sparse | sparse |  |  |  |  |  |  |  |
| CC(C)c1cccc(=O)c(O)c1 [Hinokitiol] | 60 |  | 70 |  | 0 | good | good | good |  |  |  |  |  |  |  |
| CC(C=O)Cc1ccc2c(c1)OCO2 (stereo not drawn) [Helional] | 10 | 35 | 35 |  | 0 | good | weak | weak |  |  |  |  |  |  |  |
| O=CCc1ccccc1 [Phenylacetaldehyde] |  |  |  |  |  |  |  |  | 25 | good | 30 |  |  |  |  |
| O=Cc1ccccc1O [Salicylic aldehyde] | >85 |  | >85 |  | >85 | none | none | none |  |  |  | Cumin aldehyde and Thymol and 1-Decanol and Citronellol |  |  |  |
| CC(C)c1ccc(C=O)cc1 [Cumin aldehyde] | >85 |  | >85 |  | >85 | none | none | none |  |  |  | Citral DEA; also recorded: Geraniol; also recorded: Cinnamic aldehyde DMA,; also recorded: Phenylacetaldehyde; also recorded: Decanol, Anisaldehyde,; also recorded: Citronellol |  |  |  |
| CCCCCCCC=O [Octyl aldehyde] | 10 | >85 | >85 |  | >85 | weak | none | none | 10 | weak | 35 | Cumin aldehyde | Citronellol | 1-Decanol and Thymol, and Anisaldehyde, and Geraniol, |  |
| Cc1ccc(C(C)C)c(O)c1 [Thymol] | 70 | >85 | >85 |  | >85 | weak | sparse | sparse |  |  |  |  |  |  |  |
| COC(=O)c1ccccc1O [Methyl salicylate] | 40 |  | 65 |  | 0 | weak | weak | good |  |  |  |  |  |  |  |
| C=C(C)[C@@H]1CC=C(CO)CC1 [Perilla alcohol] | 30 | 40 | 40 |  | 45 | good | slight | slight |  |  |  |  |  |  |  |
| CC=Cc1ccc(O)c(OC)c1 [Isoeugenol] | 30 | 50 | 35 | 40 | 45 | good | good | good |  |  |  |  |  |  | 55 |
| C=C(C)C1CC=C(C=O)CC1 (stereo not drawn) [Perill aldehyde] | >85 |  | >85 |  | >85 | none | none | none |  |  |  |  |  |  |  |
| COC(/C=C/c1ccccc1)OC [Cinnamic aldehyde DMA, cinnamic aldehydodimethylacetal] | 35 | 45 | 65 |  | 0 | weak | slight | good |  |  |  |  |  |  |  |
| COC(C=C(C)CCC=C(C)C)OC [Citral DMA, citral dimethylacetal] | >85 |  | >85 |  | >85 | none | none | none |  |  |  |  |  |  |  |
